The record followed here is PubChem BioAssay (NCI).

Among the test systems are SNB-19 CNS; 786-0 renal; HCT-15 colon; SNB-75 CNS; SK-MEL-28 melanoma; OVCAR-4 ovarian; HCT-116 colon; SK-OV-3 ovarian; OVCAR-5 ovarian; KM12 colon; COLO 205 colon; SN12C renal; LOX IMVI melanoma; RXF 393 renal; HOP-92 NSCLC; DU-145 prostate; MDA-MB-231 breast.
Common to all, as to test: NCI anticancer screen, dose series, 48 h

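These data come from cells grown in 96-well plates and exposed to compound for 48 hours at five concentrations. TGI: total growth inhibition.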

Regarding `O=C(O)c1cc(-c2ccccc2O)nc2ccccc12`, the TGI in the assay with SNB-19 CNS, in the assay on 786-0 renal, in the assay on HCT-15 colon, in the assay on SNB-75 CNS, in the assay on SK-MEL-28 melanoma and in the assay with OVCAR-4 ovarian was over 100 µM each time. Besides, the TGI with HCT-116 colon, with SK-OV-3 ovarian, in the assay with OVCAR-5 ovarian, in the assay with KM12 colon, in the assay on COLO 205 colon and in the assay with SN12C renal was over 100 µM throughout.

Consider `Cn1c(=O)c2c(nc(C[N+]3([O-])CCOCC3)n2C)n(C)c1=O`, for which the TGI in the assay with LOX IMVI melanoma, with SNB-19 CNS, with 786-0 renal, with HCT-15 colon, in the assay with RXF 393 renal and in the assay on SNB-75 CNS was over 100 µM throughout. Besides, the TGI with SK-MEL-28 melanoma, in the assay on HCT-116 colon, in the assay on SK-OV-3 ovarian, in the assay on OVCAR-5 ovarian, in the assay on KM12 colon and in the assay with COLO 205 colon was over 100 µM each time. For the same compound, the TGI in the assay on HOP-92 NSCLC and in the assay with SN12C renal was over 100 µM each time.

In the case of `CCOC(OCC)c1ccc(/C=C/c2cc(OC)c(OC)c(OC)c2)cc1`, the TGI with LOX IMVI melanoma is 25 µM; in the assay with SNB-19 CNS it was over 100 µM; in the assay with 786-0 renal it was 60.1 µM; with HCT-15 colon, 30.7 µM; with RXF 393 renal, 40.9 µM; with SNB-75 CNS, 57.5 µM. Moreover, the TGI was 56.7 µM in the assay with SK-MEL-28 melanoma; 68.1 µM in the assay with OVCAR-4 ovarian; 30.7 µM in the assay with HCT-116 colon; 55.7 µM with OVCAR-5 ovarian; 33.5 µM in the assay on COLO 205 colon; 64.7 µM in the assay on HOP-92 NSCLC. In the assay on SN12C renal, this compound gave a TGI of 36.9 µM.

For `NC1=NC2(O)c3ccccc3C(=O)C2(O)N1` (centres undefined), the TGI with LOX IMVI melanoma, in the assay with SNB-19 CNS, with 786-0 renal, in the assay on HCT-15 colon, in the assay on RXF 393 renal and in the assay on SNB-75 CNS was over 100 µM throughout. Moreover, the TGI in the assay with SK-MEL-28 melanoma, in the assay on OVCAR-4 ovarian, in the assay on HCT-116 colon, in the assay on SK-OV-3 ovarian, with OVCAR-5 ovarian and in the assay on KM12 colon was over 100 µM each time. In addition, the TGI in the assay with COLO 205 colon, with HOP-92 NSCLC and in the assay with SN12C renal was over 100 µM each time.

Take `COc1ccc(/C=C2\N=C(c3ccccc3)N(Nc3nnc(NN4C(=O)/C(=C/c5ccc(OC)cc5)N=C4c4ccccc4)c4ccccc34)C2=O)cc1`: the TGI in the assay on LOX IMVI melanoma is 43 µM; with SNB-19 CNS it was over 100 µM; in the assay with 786-0 renal, over 100 µM; in the assay on HCT-15 colon, over 100 µM; in the assay on RXF 393 renal, over 100 µM; with SNB-75 CNS, over 100 µM. Moreover, the TGI is over 100 µM in the assay on SK-MEL-28 melanoma; over 100 µM with OVCAR-4 ovarian; over 100 µM in the assay on HCT-116 colon; over 100 µM in the assay with OVCAR-5 ovarian; 54.3 µM in the assay with KM12 colon; over 100 µM in the assay on COLO 205 colon. For the same compound, the TGI in the assay on HOP-92 NSCLC and with SN12C renal was over 100 µM throughout.

In the case of `COc1ccc(Nc2nc(N)c(C(=O)c3ccc(OC)cc3)s2)cc1`, the TGI in the assay on LOX IMVI melanoma is over 100 µM; with SNB-19 CNS, over 49.5 µM; in the assay on 786-0 renal it was over 41.9 µM; with HCT-15 colon, over 100 µM; in the assay with RXF 393 renal it was 4.55 µM; in the assay with SNB-75 CNS, 6.26 µM. Moreover, the TGI is over 68.6 µM in the assay on SK-MEL-28 melanoma; 6.94 µM in the assay on DU-145 prostate; over 72.4 µM in the assay with MDA-MB-231 breast; over 100 µM with OVCAR-4 ovarian; over 28.9 µM in the assay on HCT-116 colon; 28.7 µM in the assay on SK-OV-3 ovarian. The TGI with OVCAR-5 ovarian was over 100 µM; in the assay with COLO 205 colon it was over 100 µM; in the assay with HOP-92 NSCLC, over 86.5 µM; in the assay with SN12C renal, over 64.5 µM.

With `CC(=O)OC1OC2C(NC(=O)OC(C)(C)C)C1CC2(OCc1ccccc1)OCc1ccccc1` (centres undefined), the TGI in the assay with SNB-19 CNS was over 100 µM; with 786-0 renal, 56.8 µM; in the assay with HCT-15 colon, over 100 µM; in the assay with RXF 393 renal it was 32.2 µM; in the assay on SNB-75 CNS it was over 100 µM; in the assay on SK-MEL-28 melanoma it was 57.2 µM. For the same compound, the TGI is 31.6 µM in the assay on HCT-116 colon; 74.9 µM in the assay with SK-OV-3 ovarian; 82.4 µM with OVCAR-5 ovarian; 71.5 µM in the assay on KM12 colon; 41.5 µM in the assay with COLO 205 colon; 30.3 µM in the assay with HOP-92 NSCLC. The compound further showed a TGI in the assay with SN12C renal of 75.2 µM.

With `CO/C(=N\N=C\c1ccc(OC)cc1OC)c1ccncc1`, the TGI in the assay on LOX IMVI melanoma, with SNB-19 CNS, in the assay on 786-0 renal, in the assay on HCT-15 colon, in the assay on RXF 393 renal and in the assay with SNB-75 CNS was over 10 µM each time. The TGI in the assay on SK-MEL-28 melanoma, in the assay with HCT-116 colon, with SK-OV-3 ovarian, in the assay with OVCAR-5 ovarian, in the assay on KM12 colon and in the assay on COLO 205 colon was over 10 µM in each case. The TGI with SN12C renal was over 10 µM.

`O=C1C(Cl)C(c2ccc(Cl)cc2)N1n1cnc2ccccc2c1=O` (centres undefined): the TGI with LOX IMVI melanoma, in the assay with SNB-19 CNS, in the assay on 786-0 renal, in the assay with HCT-15 colon, in the assay on RXF 393 renal and with SNB-75 CNS was over 100 µM in each case. Further, the TGI in the assay with SK-MEL-28 melanoma, with OVCAR-4 ovarian, with HCT-116 colon, in the assay with SK-OV-3 ovarian, in the assay on OVCAR-5 ovarian and in the assay with KM12 colon was over 100 µM each time. Moreover, the TGI with COLO 205 colon and with SN12C renal was over 100 µM each time.

Regarding `COc1cccc(/C(C=O)=C(\Cl)c2ccc(OC)c(OC)c2)c1`, the TGI came out at 28.7 µM in the assay with LOX IMVI melanoma; 16.3 µM with SNB-19 CNS; 30.7 µM in the assay with 786-0 renal; 25.6 µM in the assay with HCT-15 colon; 25.1 µM in the assay on RXF 393 renal; 21.3 µM in the assay on SNB-75 CNS. The TGI in the assay on SK-MEL-28 melanoma is 29 µM; with OVCAR-4 ovarian, 39.1 µM; in the assay with HCT-116 colon, 22.5 µM; in the assay with SK-OV-3 ovarian, 58.8 µM; in the assay with OVCAR-5 ovarian, 36.9 µM; in the assay on KM12 colon, 29.1 µM. In addition, the TGI in the assay on COLO 205 colon was found to be 27.5 µM; in the assay with HOP-92 NSCLC it was 38.7 µM; in the assay with SN12C renal, 27.8 µM.
